The Deep4Chem optical property database

Assay: solvent given as SMILES

Work on `COC(=O)C(N)Cc1ccc(O[Si]2(Oc3ccc(CC(N)C(=O)OC)cc3)n3c4c5ccccc5c3/N=C3N=C(/N=c5/c6ccccc6/c(n52)=N/C2=NC(=N\4)/c4ccccc42)c2ccccc2\3)cc1` (stereo not drawn) yielded an emission maximum (in CN(C)C=O) of 687 nm.
With `C=CCNc1ccc2ccc3oc4cc(=[N+](C)C)ccc-4nc3c2c1` the emission maximum (in CC#N) was 637 nm, the emission maximum (in CCO) was 631 nm and the emission maximum (in ClCCl) was 620 nm. For the same compound, the emission maximum (in O) was 650 nm.
In the case of `CN(C)c1ccc2cc3c(cc2c1)OCCN=C3`, the emission maximum (in C1CCOC1) is reported as 425 nm, the emission maximum (in CC#N) is reported as 562 nm and the emission maximum (in CC(C)O) is reported as 447 nm. For the same compound, the emission maximum (in CCOC(C)=O) was 426 nm, the emission maximum (in CN(C)C=O) was 442 nm and the emission maximum (in CS(C)=O) was 447 nm. It also gave an emission maximum (in Cc1ccccc1) of 415 nm, an emission maximum (in ClCCl) of 532 nm and an emission maximum (in O) of 559 nm.
Work on `NS(=O)(=O)c1ccc(N2N=C(c3ccc(O)cc3)CC2c2ccccc2)cc1` (stereo not drawn) yielded an emission maximum (in C1CCOC1) of 418 nm, an emission maximum (in C1COCCO1) of 417 nm and an emission maximum (in CC#N) of 417 nm. For the same compound, the emission maximum (in CC(C)O) was 423 nm, the emission maximum (in CCO) was 428 nm and the emission maximum (in CCOC(C)=O) was 416 nm. For the same compound, the emission maximum (in CN(C)C=O) was 422 nm, the emission maximum (in CO) was 432 nm and the emission maximum (in CS(C)=O) was 424 nm. For the same compound, the emission maximum (in O) was 448 nm.
With `CCN1\C(=C/C=C/C=C/C2=[N+](CC)c3ccc4cc(Br)ccc4c3C2(C)C)C(C)(C)c2c1ccc1cc(Br)ccc21` the emission maximum (in C1CCOC1) was 709 nm, the emission maximum (in CC#N) was 699 nm and the emission maximum (in CC(C)=O) was 703 nm. It also gave an emission maximum (in CCO) of 705 nm, an emission maximum (in CN(C)C=O) of 705 nm and an emission maximum (in CO) of 702 nm. The emission maximum (in CS(C)=O) was 709 nm and the emission maximum (in ClCCl) was 714 nm.
With `N#Cc1c(-n2c3ccc(Br)cc3c3cc(Br)ccc32)c(-n2c3ccc(Br)cc3c3cc(Br)ccc32)c(C#N)c(-n2c3ccc(Br)cc3c3cc(Br)ccc32)c1-n1c2ccc(Br)cc2c2cc(Br)ccc21` the emission maximum (in Cc1ccccc1) was 546 nm.
With `O=S1(=O)c2ccc(-c3ccc(N(c4ccccc4)c4ccccc4)cc3)cc2C2(c3ccccc3-c3ccccc32)c2cc(-c3ccc(N(c4ccccc4)c4ccccc4)cc3)ccc21` the emission maximum (in CC(C)=O) was 477.11 nm, the emission maximum (in CCCCCC) was 398.37 nm and the emission maximum (in CN(C)C=O) was 491.2 nm. For the same compound, the emission maximum (in Cc1ccccc1) was 425.46 nm and the emission maximum (in ClCCl) was 465 nm.
`O=C(O)CC[N+]1=c2cc3c(cc2CCC1)=Cc1c(c2cc4c5c(c2oc1=O)CCCN5CCC4)O3` showed an emission maximum (in CC#N) of 683 nm, an emission maximum (in CO) of 679 nm and an emission maximum (in ClCCl) of 675 nm. It also gave an emission maximum (in O) of 684 nm.
For `COC(=O)c1nc2c(N(C)C)nc(N)nc2n1Cc1ccccc1`, the emission maximum (in C1COCCO1) was 391 nm, the emission maximum (in CC#N) was 399 nm and the emission maximum (in CO) was 420 nm. For the same compound, the emission maximum (in ClCCl) was 393 nm.
`O=[N+]([O-])c1ccc(N/C=C/C=[NH+]c2ccc([N+](=O)[O-])cc2)cc1` showed an emission maximum (in CS(C)=O) of 508 nm.
Compound `COc1ccc(C2=CC(c3cc(OC)cc(OC)c3)=[O+][B-](F)(F)O2)cc1` has an emission maximum (in CC#N) of 587.1 nm, an emission maximum (in CC(C)=O) of 556.04 nm and an emission maximum (in CCCCCC) of 410.21 nm. For the same compound, the emission maximum (in Cc1ccccc1) was 450.94 nm and the emission maximum (in ClCCl) was 525 nm.
`O=[N+]([O-])c1ccc(/C=C/c2cn(S(=O)(=O)c3ccccc3)c3ccccc23)cc1` showed an emission maximum (in CC#N) of 593 nm, an emission maximum (in CCCCCCC) of 403 nm and an emission maximum (in CO) of 417 nm. The emission maximum (in O) was 540 nm.
`N#CC1=CC(/C=C/c2ccccc2)=CC(C#N)=P1(c1ccccc1)c1ccccc1` gave an emission maximum (in ClC(Cl)Cl) of 581 nm.
For `CCC1=C(C)C2=C(C)c3c(C)c(CC)c(C)n3[B-](F)(F)[N+]2=C1C`, the emission maximum (in C1CCCCC1) was 537.2 nm, the emission maximum (in C1CCOC1) was 534 nm and the emission maximum (in C1COCCO1) was 533.2 nm. For the same compound, the emission maximum (in CC#N) was 530.4 nm, the emission maximum (in CC(C)=O) was 532 nm and the emission maximum (in CC(C)O) was 534 nm. It also gave an emission maximum (in CCC(C)C) of 534.4 nm, an emission maximum (in CCCCCC) of 533.6 nm and an emission maximum (in CCCCCCCC) of 535.2 nm. It also gave an emission maximum (in CCCCCCCCCCO) of 534.8 nm, an emission maximum (in CCCCCCCCO) of 534.4 nm and an emission maximum (in CCCCCCO) of 534.8 nm. It also gave an emission maximum (in CCCCO) of 534.4 nm, an emission maximum (in CCCO) of 534 nm and an emission maximum (in CCO) of 532.4 nm. For the same compound, the emission maximum (in CCOC(C)=O) was 531.6 nm, the emission maximum (in CCOCC) was 532.8 nm and the emission maximum (in CN1CCCC1=O) was 533.2 nm. The emission maximum (in CN(C)C=O) was 532.8 nm, the emission maximum (in CO) was 531.6 nm and the emission maximum (in Cc1ccccc1) was 536.4 nm. The emission maximum (in ClCCl) was 534 nm, the emission maximum (in OCC(F)(F)F) was 535.2 nm and the emission maximum (in OCCO) was 536.4 nm. It also gave an emission maximum (in OCCOc1ccccc1) of 536.8 nm and an emission maximum (in c1ccccc1) of 536.4 nm.
